Laboratory results as given in patent publication US8466176B2 (priority 2008, dated 2013).

Test: logP(HCOOH) reported with HPLC/MS
Conditions: HCOOH (formic acid), logP(HCOOH), HPLC/MS

Row | SMILES | chromatographic logP
1 | COc1ccc(CON=C(c2ccccc2)c2nnnn2C)nc1Br [Example 125, N-[(6-bromo-5-methoxypyridin-2-yl)methoxy]-1-(1-methyl-1H-tetrazol-5-yl)-1-phenylmethanimine] | 3.13
2 | Cn1nnnc1C(=NOCc1cccc(N(CCC2CCCCC2)C(=O)OC(C)(C)C)n1)c1ccccc1 [Example 141, tert-butyl (2-cyclohexylethyl){6-[({[(1-methyl-1H-tetrazol-5-yl)(phenyl)methylene]amino}oxy)methyl]pyridin-2-yl}carbamate] | 6.56

Same assay, conditions: HPLC, logP(HCOOH), HPLC/MS

Row | SMILES | chromatographic logP
3 | Cc1nnnn1C(=NOCc1csc(Br)n1)c1ccccc1 [Example 145, N-[(2-bromo-1,3-thiazol-4-yl)methoxy]-1-(5-methyl-1H-tetrazol-1-yl)-1-phenylmethanimine] | 3.15

Same assay, conditions: formic acid (HCOOH), logP(HCOOH), HPLC/MS

Row | SMILES | chromatographic logP
4 | Cn1nnnc1C(=NOCc1csc(NCCC2CCCCC2)n1)c1ccccc1 [Example 161, N-(2-cyclohexylethyl)-4-[({[(1-methyl-1H-tetrazol-5-yl)(phenyl)methylene]amino}oxy)methyl]-1,3-thiazol-2-amine] | 3.62

Same assay, conditions: logP(HCOOH), HPLC/MS

Row | SMILES | chromatographic logP
5 | Cc1nnnn1C(=NOCc1csc(C#CC2CC2)n1)c1ccccc1 [Example 159] | 3.65
6 | Cn1nnnc1C(=NOCc1cccc(C=O)n1)c1ccccc1 [Example 174, 6-[({[(1-methyl-1H-tetrazol-5-yl)(phenyl)methylene]amino}oxy)methyl]pyridine-2-carbaldehyde] | 2.54

Same assay, conditions: method [a]: HPLC on reversed phase columns, pH 2.3 with 0.1% phosphoric acid and acetonitrile as eluent

Row | SMILES | log p
7 | COC=CC#Cc1nc(CON=C(c2ccccc2)c2nnnn2C)cs1 [Example 136] | 3.06^[a]
8 | CC(=O)OCCCC#Cc1nc(CON=C(c2ccccc2)c2nnnn2C)cs1 [Example 137] | 3.17^[a]
9 | Cn1nnnc1C(=NOCc1csc(C#C[Si](C)(C)C)n1)c1ccccc1 [Example 138] | 4.59^[a]
10 | C#Cc1nc(CON=C(c2ccccc2)c2nnnn2C)cs1 [Example 139] | 2.77^[a]
11 | Cn1nnnc1C(=NOCc1cccc(N(CCC2CC(F)(F)C2(F)F)C(=O)OC(C)(C)C)n1)c1ccccc1 (stereo not drawn) [Example 140] | 5.05^[a]
12 | Cn1nnnc1C(=NOCc1cccc(N(CC2CC2)C(=O)OC(C)(C)C)n1)c1ccccc1 [Example 142] | 4.7^[a]
13 | Cn1nnnc1C(=NOCc1cccc(NCCC2CC(F)(F)C2(F)F)n1)c1ccccc1 (stereo not drawn) [Example 143] | 2.51^[a]
14 | Cn1nnnc1C(=NOCc1cccc(NCC2CC2)n1)c1ccccc1 [Example 144] | 1.75^[a]
15 | Cn1nnnc1C(=NOCc1cccc(NC/C=C/C#CC(C)(C)C)n1)c1ccccc1 [Example 158] | 3.25^[a]

Same assay, conditions: method [b]: LC-MS at pH 2.7, 0.1% formic acid in water and acetonitrile, linear gradient 10% to 95% acetonitrile

Row | SMILES | log p
16 | CCCCC#Cc1nc(CON=C(c2ccccc2)c2nnnn2C)c(Cl)s1 [Example 117] | 5.22^[b]
17 | CC(C)CCC#Cc1nc(CON=C(c2ccccc2)c2nnnn2C)c(Cl)s1 [Example 118] | 5.59^[b]
18 | Cn1nnnc1C(=NOCc1nc(C#CCOc2ccccc2)sc1Cl)c1ccccc1 [Example 119] | 4.62^[b]
19 | Cn1nnnc1C(=NOCc1nc(C#CC2CCCCC2)sc1Cl)c1ccccc1 [Example 120] | 5.75^[b]
20 | Cn1nnnc1C(=NOCc1nc(C#CCCCCl)sc1Cl)c1ccccc1 [Example 121] | 4.51^[b]
21 | Cn1nnnc1C(=NOCc1nc(C#CCCCC#N)sc1Cl)c1ccccc1 [Example 122] | 3.58^[b]
22 | Cn1nnnc1C(=NOCc1nc(C#CCCCc2ccccc2)sc1Cl)c1ccccc1 [Example 123] | 5.56^[b]
23 | Cn1nnnc1C(=NOCc1cccc(C#CC2=CCCCC2)n1)c1ccccc1 [Example 124] | 4.34^[b]
24 | CCCCC#Cc1nc(CON=C(c2ccccc2)c2nnnn2C)ccc1OC [Example 127] | 3.96^[b]
25 | COc1ccc(CON=C(c2ccccc2)c2nnnn2C)nc1C#CCC1CCCC1 [Example 128] | 4.46^[b]
26 | COc1ccc(CON=C(c2ccccc2)c2nnnn2C)nc1C#CCC1CCCCC1 [Example 129] | 4.84^[b]
27 | COc1ccc(CON=C(c2ccccc2)c2nnnn2C)nc1C#CCCCc1ccccc1 [Example 130] | 4.44^[b]
28 | COc1ccc(CON=C(c2ccccc2)c2nnnn2C)nc1C#CCOc1ccccc1 [Example 131] | 3.8^[b]

Same assay, conditions: method [b]: LC-MS, pH 2.7 with 0.1% formic acid in water and acetonitrile (0.1% formic acid), linear gradient 10% to 95% acetonitrile

Row | SMILES | log p
29 | COc1ccc(CON=C(c2ccccc2)c2nnnn2C)nc1C#CC1CCCCC1 [Example 132] | 4.44^[b]
30 | COc1ccc(CON=C(c2ccccc2)c2nnnn2C)nc1C#CC(C)(C)C [Example 133] | 3.92^[b]
31 | CCc1ccc(C#Cc2nc(CON=C(c3ccccc3)c3nnnn3C)ccc2OC)cc1 [Example 134] | 4.56^[b]
32 | COc1ccc(CON=C(c2ccccc2)c2nnnn2C)nc1C#CCCCC#N [Example 135] | 2.82^[b]
33 | Cn1nnnc1C(=NOCc1csc(Br)n1)c1cccc(F)c1 [Example 146] | 3.23^[b]
34 | Cn1nnnc1C(=NOCc1csc(C#CCC2CCCCC2)n1)c1cccc(F)c1 [Example 147] | 5.42^[b]
35 | Cn1nnnc1C(=NOCc1csc(C#CC2CC2)n1)c1cccc(F)c1 [Example 148] | 3.71^[b]
36 | CCCCC#Cc1nc(CON=C(c2cccc(F)c2)c2nnnn2C)cs1 [Example 149] | 4.51^[b]
37 | Cn1nnnc1C(=NOCc1csc(C#CCCCc2ccccc2)n1)c1cccc(F)c1 [Example 150] | 4.89^[b]
38 | CCCC#Cc1nc(CON=C(c2cccc(F)c2)c2nnnn2C)cs1 [Example 151] | 4.09^[b]
39 | CCCCCC#Cc1nc(CON=C(c2cccc(F)c2)c2nnnn2C)cs1 [Example 152] | 4.94^[b]
40 | Cn1nnnc1C(=NOCc1csc(C#CCC2CCCC2)n1)c1cccc(F)c1 [Example 153] | 5.03^[b]
41 | Cn1nnnc1C(=NOCc1csc(C#CCCCC#N)n1)c1cccc(F)c1 [Example 154] | 3.09^[b]
42 | Cn1nnnc1C(=NOCc1csc(C#CCCc2ccccc2)n1)c1cccc(F)c1 [Example 156] | 4.49^[b]
43 | C#Cc1nc(CON=C(c2cccc(F)c2)c2nnnn2C)cs1 [Example 157] | 2.88^[b]
44 | Cn1nnnc1C(=NOCc1csc(NCC2CC2)n1)c1ccccc1 [Example 162] | 2.26^[b]
45 | CCCCC#Cc1nc(CON=C(c2ccccc2)n2nnnc2C)cs1 [Example 164] | 4.49^[b]
46 | CCCC#Cc1nc(CON=C(c2ccccc2)n2nnnc2C)cs1 [Example 165] | 4.04^[b]
47 | Cc1nnnn1C(=NOCc1csc(C#CCCCc2ccccc2)n1)c1ccccc1 [Example 166] | 4.84^[b]
48 | CCCCCC#Cc1nc(CON=C(c2ccccc2)n2nnnc2C)cs1 [Example 167] | 4.92^[b]
49 | Cc1nnnn1C(=NOCc1csc(C#CCCc2ccccc2)n1)c1ccccc1 [Example 168] | 4.44^[b]
50 | Cc1nnnn1C(=NOCc1csc(C#CCC2CCCCC2)n1)c1ccccc1 [Example 169] | 5.41^[b]
51 | Cc1nnnn1C(=NOCc1csc(C#CCC2CCCC2)n1)c1ccccc1 [Example 170] | 4.97^[b]
52 | Cc1nnnn1C(=NOCc1csc(C#CCCCC#N)n1)c1ccccc1 [Example 171] | 3.02^[b]

Same assay, conditions: method [c]: LC-MS, pH 7.8 with 0.001 molar ammonium hydrogen carbonate solution in water, linear gradient 10% to 95% acetonitrile

Row | SMILES | log p
53 | CCCCC1COC(c2cccc(CON=C(c3ccccc3)c3nnnn3C)n2)O1 (stereo not drawn) [Example 172] | 4.34^[c]
54 | Cn1nnnc1C(=NOCc1cccc(C2OCC(COCc3ccccc3)O2)n1)c1ccccc1 (stereo not drawn) [Example 173] | 3.89^[c]

Same assay, conditions: reversed phase HPLC column, pH 2.7, log p, method [b]: LC-MS at pH 2.7, 0.1% formic acid in water and acetonitrile, linear gradient 10% to 95% acetonitrile

Row | SMILES | chromatographic logP
55 | COc1ccc(CON=C(c2ccccc2)c2nnnn2C)nc1Br [Example 125, N-[(6-bromo-5-methoxypyridin-2-yl)methoxy]-1-(1-methyl-1H-tetrazol-5-yl)-1-phenylmethanimine] | 3.13

Same assay, conditions: reversed phase HPLC column, pH 2.7, log p, method [b]: LC-MS, pH 2.7 with 0.1% formic acid in water and acetonitrile (0.1% formic acid), linear gradient 10% to 95% acetonitrile

Row | SMILES | chromatographic logP
56 | Cc1nnnn1C(=NOCc1csc(Br)n1)c1ccccc1 [Example 145, N-[(2-bromo-1,3-thiazol-4-yl)methoxy]-1-(5-methyl-1H-tetrazol-1-yl)-1-phenylmethanimine] | 3.15
57 | Cc1nnnn1C(=NOCc1csc(C#CC2CC2)n1)c1ccccc1 [Example 159] | 3.65
58 | Cn1nnnc1C(=NOCc1csc(NCCC2CCCCC2)n1)c1ccccc1 [Example 161, N-(2-cyclohexylethyl)-4-[({[(1-methyl-1H-tetrazol-5-yl)(phenyl)methylene]amino}oxy)methyl]-1,3-thiazol-2-amine] | 3.62

Same assay, conditions: reversed phase HPLC columns, pH 2.3, log p, method [a]: HPLC on reversed phase columns, pH 2.3 with 0.1% phosphoric acid and acetonitrile as eluent

Row | SMILES | chromatographic logP
59 | Cn1nnnc1C(=NOCc1cccc(N(CCC2CCCCC2)C(=O)OC(C)(C)C)n1)c1ccccc1 [Example 141, tert-butyl (2-cyclohexylethyl){6-[({[(1-methyl-1H-tetrazol-5-yl)(phenyl)methylene]amino}oxy)methyl]pyridin-2-yl}carbamate] | 6.56
60 | Cn1nnnc1C(=NOCc1cccc(C=O)n1)c1ccccc1 [Example 174, 6-[({[(1-methyl-1H-tetrazol-5-yl)(phenyl)methylene]amino}oxy)methyl]pyridine-2-carbaldehyde] | 2.54
